pIC50: −log10 of the molar value. Where two headings read alike, the source gives them in different places.
Key:
Assay in all cases: 3D clonogenic assay (PDX)
Assay type in all cases: cell-based, human
[1] = tested on: CXF 2025; details: CXF 2025, Colorectal; for pIC50: Homo sapiens
Method in brief: (§1)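 Tumor xenografts are dissociated with a collagenase/DNase/hyaluronidase/dispase cocktail, and the cells are frozen, then thawed and embedded in 0.4% agar over a 0.75% agar base. Compound is added at day 1 and left on continuously for 8–13 days. IC50 is taken as the curve inflection point or as the concentration at T/C = 50%.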

[2] = tested on: GXA 3044; details: GXA 3044, Asian Gastric; for pIC50: Homo sapiens
Method in brief: as §1

[3] = tested on: GXF 1172; details: GXF 1172, Gastric; for pIC50: Homo sapiens
Method in brief: as §1

[4] = tested on: HNXF 1842; details: HNXF 1842, Head and Neck; for pIC50: Homo sapiens
Method in brief: as §1

[5] = tested on: HNXF 908; details: HNXF 908, Head and Neck; for pIC50: Homo sapiens
Method in brief: as §1

[6] = tested on: LXFA 923; details: LXFA 923, Lung Adeno; for pIC50: Homo sapiens
Method in brief: as §1

[7] = tested on: MEXF 1765; details: MEXF 1765, Melanoma; for pIC50: Homo sapiens
Method in brief: as §1

[8] = tested on: MEXF 622; details: MEXF 622, Melanoma; for pIC50: Homo sapiens
Method in brief: as §1

[9] = tested on: OVXF 1023; details: OVXF 1023, Ovarian; for pIC50: Homo sapiens, OVXF1023
Method in brief: as §1

[10] = tested on: OVXF 1544; details: OVXF 1544, Ovarian; for pIC50: Homo sapiens
Method in brief: as §1

[11] = tested on: PAXF 2046; details: PAXF 2046, Pancreas; for pIC50: Homo sapiens
Method in brief: as §1

[12] = tested on: PAXF 2116; details: PAXF 2116, Pancreas; for pIC50: Homo sapiens
Method in brief: as §1

pIC50 ([1]; read-out: abs. IC50): 5.05 | pIC50 ([1]; read-out: rel. IC50): 5.06 | pIC50 ([2]; read-out: abs. IC50): 5.04 | pIC50 ([2]; read-out: rel. IC50): 5.05 | pIC50 ([3]; read-out: abs. IC50): 4.89 | pIC50 ([3]; read-out: rel. IC50): 4.90 | pIC50 ([4]; read-out: abs. IC50): 5.27 | pIC50 ([4]; read-out: rel. IC50): 5.26 | pIC50 ([5]; read-out: abs. IC50): 5.28 | pIC50 ([5]; read-out: rel. IC50): 5.29 | pIC50 ([6]; read-out: abs. IC50): 5.07 | pIC50 ([6]; read-out: rel. IC50): 5.07 | pIC50 ([7]; read-out: abs. IC50): 5.07 | pIC50 ([7]; read-out: rel. IC50): 5.07 | pIC50 ([8]; read-out: abs. IC50): 5.04 | pIC50 ([8]; read-out: rel. IC50): 5.04 | pIC50 ([9]; read-out: abs. IC50): 5.13 | pIC50 ([9]; read-out: rel. IC50): 5.17 | pIC50 ([10]; read-out: abs. IC50): 4.87 | pIC50 ([10]; read-out: rel. IC50): 4.89 | pIC50 ([11]; read-out: abs. IC50): 4.73 | pIC50 ([11]; read-out: rel. IC50): 5.02 | pIC50 ([12]; read-out: abs. IC50): 5.04 | pIC50 ([12]; read-out: rel. IC50): 5.05
Compound: O[C@H](c1cc(-c2ccc(Cl)cc2)nc2ccccc12)[C@@H]1CCCCN1 [S1, (R)-(2-(4-chlorophenyl)quinolin-4-yl)((S)-piperidin-2-yl)methanol]
b (bottom plateau of concentration-effect curve) [1]: 33 | t (top plateau of concentration-effect curve) [1]: 97 | b (bottom plateau of concentration-effect curve) [2]: 15 | t (top plateau of concentration-effect curve) [2]: 101 | b (bottom plateau of concentration-effect curve) [3]: 28 | t (top plateau of concentration-effect curve) [3]: 79 | b (bottom plateau of concentration-effect curve) [4]: 15 | t (top plateau of concentration-effect curve) [4]: 77 | b (bottom plateau of concentration-effect curve) [5]: 17 | t (top plateau of concentration-effect curve) [5]: 90 | b (bottom plateau of concentration-effect curve) [6]: 21 | t (top plateau of concentration-effect curve) [6]: 101 | b (bottom plateau of concentration-effect curve) [7]: 23 | t (top plateau of concentration-effect curve) [7]: 84 | b (bottom plateau of concentration-effect curve) [8]: 21 | t (top plateau of concentration-effect curve) [8]: 86 | b (bottom plateau of concentration-effect curve) [9]: 11 | t (top plateau of concentration-effect curve) [9]: 100 | b (bottom plateau of concentration-effect curve) [10]: 22 | t (top plateau of concentration-effect curve) [10]: 107 | b (bottom plateau of concentration-effect curve) [11]: 38 | t (top plateau of concentration-effect curve) [11]: 100 | b (bottom plateau of concentration-effect curve) [12]: 32 | t (top plateau of concentration-effect curve) [12]: 112

— patent publication EP3064205A1, “Therapeutic use of isomeric forms of 2-(4-chlorophenyl)quinolin-4-yl)(piperidin-2-yl)methanol” (Glionova AB, priority 2015, dated 2016)
